The text below walks through data of US20250228858A1, “ANTI-CANCER COMBINATION THERAPY” (Boehringer Ingelheim International GmbH, priority 2023, published 2025).

Experiment [1] concerns HER2-overexpressing human gastric cancer cell line NCI-N87. Description: NCI-N87 subcutaneous xenograft, zongertinib with T-DM1. It is filed as in vivo, NMRI-Foxn1^nu mice. The note with it: for Regressions >30% / TGI: day 21; for Regressions >30%: tumors regressed/total; for Time to reach 300 mm^3: median, after stop of treatment at day 21. How it is done: The study is performed in human gastric cancer cell line NCI-N87 grown as subcutaneous xenografts in NMRI-Foxn1^nu mice. Day 1 was the first day, day 21 the last day of treatment and day 22 the final day of analysis. […]
NCI-N87 is a HER2-overexpressing human gastric cancer cell line that can be obtained from the American Type Culture Collection (ATCC #CRL-5822). Cells are cultured in T175 tissue culture flasks at 37° C. and 5% CO2. The medium used is RPMI 1640 (ATCC #30-2001) supplemented with 10% fetal calf serum (FCS) (Thermo Scientific #SH 30084.03). Cultures are split twice weekly with a ratio of 1:2.
Mice are 6- to 10-week-old female NMRI-Foxn1^nu purchased from Taconic, Denmark. After arrival at the animal facility, mice are allowed to adjust to conditions at least for 5 days before they are used for the experiment. They are housed in Macrolon® type III cages in groups of 8 to 10 under pathogen-free, controlled and standardized conditions at 21.5±1.5° C. temperature, 55±10% humidity and 12-h light-dark cycle. Standardized diet (PROVIMI KLIBA) and autoclaved tap water are provided ad libitum. Subcutaneous microchips implanted under isoflurane anaesthesia are used to identify each mouse. Cage cards showing the study number, the animal identification number, the compound, the dose level, the administration route as well as the schedule remain with the animals throughout the study.
To establish subcutaneous tumors, NCI-N87 cells are harvested by centrifugation, washed and resuspended in PBS+5% FCS at 2.5×10^7 cells/ml. 100 μl cell suspension containing 2.5×10^6 cells is injected subcutaneously into the right flank of the mice (1 site per mouse).
The suspension is used for a maximum of 7 days.
T-DM1 (Kadcyla) can be purchased from Roche.
Mice in the control group are treated with vehicle, i.e.: • (i) 0.5% Natrosol, administered once daily for the duration of the treatment intragastrally by gavage needle with a volume of 10 ml/kg body weight; and • (ii) saline (0.9%), administered once every three weeks intravenously into the tail vein with a volume of 5 ml/kg.
Tumor volumes are measured three times a week with a caliper. The volume of each tumor [in mm^3] is calculated according to the formula: […]
To monitor side effects of treatment, mice are inspected daily for abnormalities and body weight is determined three times a week. […] In addition, animals with tumor sizes exceeding 1500 mm^3 in diameter, with ulcerating tumors or 18% body weight loss are euthanized for ethical reasons.
For a quick overview of possible treatment effects, the median of the tumor volume of each treatment group T is referred to the median of the control C as tumor growth inhibition (TGI) defined as: […]
To do so, the time until the tumor reached a critical volume of 300 mm^3 can be included as an additional evaluation parameter. If an animal is sacrificed for tumor necrosis without reaching the critical tumor volume, the time point is set to the last measurement time point and included as a censored observation.
The median survival time is derived from the Kaplan Meier survival curves per group as the time point with a survival probability (probability of reaching the critical tumor volume) of 0.5. For the treatment groups the median survival time is referred to the corresponding time of the control group as an estimate for the prolongation of the time to critical tumor volume by the therapy.

The test system of experiment [2] is HER2-overexpressing human breast cancer cell line SUM190PT. Description: SUM190PT subcutaneous xenograft, zongertinib with T-DM1. It is filed as in vivo, NMRI-Foxn1^nu mice. The note with it: day 21, alone or combined; for stable disease: number of tumors out of 8, zongertinib 20 mg/kg qdx21, T-DM1 3 mg/kg q21dx1; for Regressions >30%: tumors regressed/total (partial response); for Regressions >30% / TGI: zongertinib 20 mg/kg qdx21 p.o., T-DM1 3 mg/kg q21dx1 i.v. How it is done: The study is performed in human breast cancer cell line SUM190PT grown as subcutaneous xenografts in NMRI-Foxn1^nu mice. Day 1 was the first day, day 21 the last day of treatment and final day of analysis.
SUM190PT is a HER2-overexpressing human breast cancer cell line that can be obtained from Asterand Bioscience (BioIVT). Cells are cultured in T75, T175 and 5-Layer tissue culture flasks at 37° C. and 5% CO2. The medium used is ACL-4 (Thermo Fisher Scientific #041-95574M Custom Batch) supplemented with 0.5% bovine serum albumin (JHR 85-041-025), 0.02 mg/ml insulin (Sigma I5500), 0.01 mg/ml transferrin (Sigma T-2252), 25 nM sodium selenite (Sigma S9133), 50 nM Hydrocortisone (Sigma H-4001), 1 ng/ml Epidermal Growth Factor (unfiltered, Sigma E4127), 0.01 mM ethanolamine (Sigma E-0135), 0.01 mM phosphorylethanolamine (Medchem HY-N5034), 100 pM triiodothyronine (Sigma T5516), 0.5 mM sodium pyruvate (Sigma S8636) and 2 mM L-glutamine (Gibco 11539876). Cultures are split once weekly with a ratio of 1:2.
To establish subcutaneous tumors, SUM190PT cells are harvested by centrifugation, washed and resuspended in PBS+2.5% FCS+50% Matrigel (Corning #2165001) at 5×10^7 cells/ml. 100 μl cell suspension containing 5×10^6 cells is injected subcutaneously into the right flank of the mice (1 site per mouse). Mice are randomly distributed between the treatment and the vehicle control group (13 days after cell injection) when tumors are well established and have reached volumes of 100 to 180 mm^3.
Tumor volumes and side effects are monitored as described in Example 1 (see paragraph 1.1.6), except that control animals were analysed when the median tumor volume of the group reaches a size of approximately 700 mm^3.
The statistical evaluation of the tumor volume and the body weight is conducted on day 21 (last day of the study). Apart from this, statistical analysis was performed as described in Example 1 (see paragraph 1.1.7), with no evaluation of tumor growth after stop of treatment.

[3] abbreviates: zongertinib 5 mg/kg qdx21 p.o., alone or combined with T-DM1 10 mg/kg q21dx1 i.v.
Setting [4] is: zongertinib 20 mg/kg qdx21 p.o., T-DM1 10 mg/kg q21dx1 i.v., alone or combined.
The mark [5] stands for this setting: zongertinib 20 mg/kg/day, T-DM1 10 mg/kg, alone or combined.

Consider `C=CC(=O)NC1CCN(c2ncc3ncnc(Nc4ccc(Oc5ccc6c(c5)ncn6C)c(C)c4)c3n2)CC1` [Zongertinib, N-{1-[8-({3-methyl-4-[(1-methyl-1H-1,3-benzodiazol-5-yl)oxy]phenyl}amino)-[1,3]diazino [5,4-d]pyrimidin-2-yl]piperidin-4-yl}prop-2-enamide], for which, in experiment [1] (setting [3]), the “Regressions >30%” value is 0/8, the TGI was 45% and the “Time to reach 300 mm^3” value was determined as 30.0 days. Further, in experiment [1] (setting [4]), the “Regressions >30%” value is listed as 8/8 and the TGI came to 145%. Besides, in experiment [1] (zongertinib 5 mg/kg/day, alone or combined with T-DM1 10 mg/kg), the “effect on tumor growth (median tumor volumes over time)” value is “did not shrink tumors”. For the same compound, the “effect on tumor growth (median tumor volumes over time)” value in experiment [1] (setting [5]) is “induced deep and persistent tumor shrinkage”. Moreover, in experiment [2], the stable disease entry is recorded as “no stable disease”, the “Regressions >30%” value is recorded as 0/8 and the TGI came to 64%.
For “trastuzumab emtansine [T-DM1, reference compound]”, in experiment [1] (setting [4]), the “Regressions >30%” value is given as 1/8, the TGI came out at 67% and the “Time to reach 300 mm^3” value was found to be 39.5 days. For the same compound, the “effect on tumor growth (median tumor volumes over time)” value in experiment [1] (setting [5]) is on record as “suppressed the growth of NCI-N87 tumors but did not shrink them”. Also, in experiment [2], the stable disease is on record as 3, the “Regressions >30%” value was 0/8 and the TGI was 90%.
